Measurements reported in a melting point compilation (Tetko et al.; mined from patent text by program, amines drawn as free bases though some values may be those of a salt).

CC(C)C(NC(=O)c1ccc(C(=O)NCc2ccc(Cl)cc2)cc1)C(=O)N1CCCC1C(=O)NC(C(=O)C(F)(F)F)C(C)C (mixture of isomers) showed a melting point of 87 to 89 °C.
With CCOc1ccc(C(C)=O)cc1C(=O)O the melting point was 122 to 125 °C.
CN1Cc2c(C#Cc3ccc(Cl)cc3)ncn2-c2ccc(F)cc2C1=O gave a melting point of 221 to 222 °C.
CC(=O)CC(=O)NCCNC(=O)OCc1ccccc1 showed a melting point of 116 to 118 °C.
In the case of Cn1cc(C#N)c(Nc2ccc(Cl)cc2[N+](=O)[O-])n1, the melting point is reported as 205 °C.
CCCCN(Cc1ccc(-c2ccccc2-c2nnn[nH]2)cc1)c1nc(SC)ncc1C(=O)OCC gave a melting point of 161 to 163 °C.
Work on CC1(C)C(=O)Nc2cc3[nH]c(-c4c[nH]c5ccccc45)nc3cc21 yielded a melting point of 243 to 245 °C.
Work on CC(C)(C)c1ccc(C(O)(c2ccc(C(C)(C)C)cc2)c2ncc[nH]2)cc1 yielded a melting point of 215 to 216 °C.
Molecule O=c1nc(Nc2ccc(Br)cc2)sc2ncccc12 has a melting point of 274 to 275 °C.
In the case of O=C(NCC(F)(F)F)c1nn(-c2ccc(F)cc2F)c2c1C1CCC2C1 (centres undefined), the melting point is reported as 149 to 152 °C.
O=C(Nc1ccccc1SCc1ncon1)c1ccc(Cl)cc1 showed a melting point of 103 °C.
With C=CS(=O)(=O)c1cc2c(Nc3cccc(Br)c3)ncnc2cn1 the melting point was 214 to 217 °C.
For CCOc1nc(=O)n(C(=O)NC)s1, the melting point was 152 °C.
C[C@@H]1CN(Cc2ccccc2)C[C@H]1N (relative stereo) gave a melting point of 74 to 80 °C.
CN1NC(C2CCCC2)=CC1C(=O)O (centres undefined) showed a melting point of 123 to 128 °C.
Work on CCOCc1nc2c(N)nc3cc(OCc4ccccc4Cl)ccc3c2n1CC(C)(C)NS(C)(=O)=O yielded a melting point of 253 to 255 °C.
With O=C(O)c1ccccc1C(=O)Nc1ccc2c(=O)n3c(nc2c1)C(=Cc1ccccc1)CC3 the melting point was > 300 °C.
For COc1ccccc1N1CCN(C(=O)Nc2cc3ccccc3nc2OC)CC1, the melting point was 159 to 161 °C.
O=c1cccc2c([N+](=O)[O-])cccc2n1 gave a melting point of 139 to 141 °C.
COC(=O)C(C)Oc1ccc(Oc2ccc3cc(Cl)cc(Cl)c3n2)cc1 (centres undefined) gave a melting point of 70 °C.
Work on CC1(C)CCC2=C(O1)c1ccccc1C1(OCC(CO)O1)C2=O (centres undefined) yielded a melting point of 44 to 46 °C.
Work on NS(=O)(=O)c1ccc(N2CN(c3ccccc3)CC2=O)c(Br)c1 yielded a melting point of 193 to 200 °C.
With CN(C)Cc1ccc2nc(NC(=O)c3ccc(C(C)(C)C)cc3)cn2c1 the melting point was 236 to 237 °C.
With COC(=O)c1ccc(C(=O)c2ccccc2)[nH]1 the melting point was 111 to 113 °C.
Work on CN1CN(c2cccc([N+](=O)[O-])c2)c2ncccc2C1=O yielded a melting point of 247 to 248 °C.
O=S1(=O)NCN(CCF)c2cc(F)ccc21 gave a melting point of 107 to 109 °C.
CCOC(=O)c1cn(CC)c2cc(Cl)c(Br)cc2c1=O gave a melting point of 166 °C.
Molecule O=[N+]([O-])c1ccc(Cl)cc1NCC1CCCCC1 has a melting point of 73 °C.
Molecule O=C(O)C1Cc2cc3c(-c4ccccc4)noc3c(Cl)c2O1 (centres undefined) has a melting point of 214 to 215 °C.
CN1CCN(S(=O)(=O)c2cc(NC(=O)c3cnn4c(C(F)(F)F)cc(-c5ccc(C(F)(F)F)cc5)nc34)c(Cl)s2)CC1 showed a melting point of 301 °C.
With CC(C)(C)C(NC(=O)c1ccc(Cl)cc1)NC(=N[N+](=O)[O-])Nc1cccnc1 (centres undefined) the melting point was 203 to 204 °C.
In the case of Cc1c(C)c2c(c(C)c1N)CC(C)(CI)O2 (centres undefined), the melting point is reported as 105 to 107 °C.
In the case of CCOC(=O)CSc1nc(O)c(C)c(O)n1, the melting point is reported as 211 to 214 °C.
With CN(CCOc1ccc(C=O)cc1)C(=O)OC(C)(C)C the melting point was 62 to 65 °C.
CCOC(=O)c1ccc(-c2nc(COc3ccc(COc4nn(-c5ccccc5)cc4/C=C\c4csc(CC)n4)cc3OC)c(C)o2)s1 gave a melting point of 118 to 119 °C.
O=[N+]([O-])c1ccc(CSSCc2ccc([N+](=O)[O-])cc2)cc1 showed a melting point of 126 °C.
CC1(C)c2cccn2-c2cc(F)c(F)cc2N1S(=O)(=O)c1ccc(O)cc1 gave a melting point of 202 to 204 °C.
Molecule N#Cc1nn(-c2c(Cl)cc(C(F)(F)F)cc2Cl)c(N)c1-c1ccccc1C(F)(F)F has a melting point of 161 °C.
In the case of Cc1cc(C23CC4CC(CC(C4)C2)C3)ccc1NS(=O)(=O)c1cc([N+](=O)[O-])ccc1Cl, the melting point is reported as 238 °C.
In the case of O=C1CNc2cc(F)ccc2N1, the melting point is reported as 176 to 178 °C.
With COC1=NS(=O)(=O)N=C1NCCCCC#CCN(C)C the melting point was 172 to 174 °C.
With Cc1[nH]c(=O)[nH]c1C(=O)c1ccc(N2CCOCC2)cc1 the melting point was 283 to 286 °C.
Molecule c1cnc2ccc(Cn3nnc4ccc(-c5cnn(C6CCNCC6)c5)nc43)cc2c1 has a melting point of 188 to 191 °C.
COc1cc(Nc2nccc(-c3ccc(-c4nnn[nH]4)cc3)n2)cc(OC)c1OC gave a melting point of 246 to 247 °C.
Molecule CC(=O)Nc1ccc(OCCOc2ccccc2)cc1[N+](=O)[O-] has a melting point of 104 to 106 °C.
O=C1c2cccc3cccc(c23)C(=O)N1CCCCCBr gave a melting point of 113 to 115 °C.
In the case of O=C(CCC1CCNCC1)c1ccc2c(c1)NCCCC2, the melting point is reported as 104 to 107 °C.
With COc1cccc(CC(=O)O)c1OCc1cc(OCc2ccc3ccccc3n2)nn1C(C)C the melting point was 163 to 164 °C.
CC(Br)C(=O)NS(=O)(=O)c1ccc2c(c1)CC(C)(C)O2 (centres undefined) showed a melting point of 125 to 128 °C.
COC(=O)c1c[nH]c(Cl)c1 gave a melting point of 92 °C.
CC(C)C[C@H](NC(=O)[C@H](Cc1ccccc1)NC(=O)C1CCCC1)C(=O)O showed a melting point of 148 to 151 °C.
O=c1[nH]c(CSCc2ccccc2)nc2nccnc12 showed a melting point of 224 to 226 °C.
For CCOC(=O)C1=C(C)NC(C)=C(C(=O)OCC)C1c1ccc(-n2ccnc2)cc1, the melting point was 231 to 233 °C.
For CCC(=O)C1=C(O)CC(c2ccc(Oc3ccc(S(C)(=O)=O)cc3)cc2)CC1=O (centres undefined), the melting point was 157 to 158 °C.
Work on COC(=O)c1cnn(O)c1 yielded a melting point of 175 °C.
In the case of CC(C)(C)c1cc(OCc2ccccc2C(=O)Nc2nnn[nH]2)cc(C(C)(C)C)c1, the melting point is reported as 251 to 254 °C.
Work on FC(F)(F)c1c[nH]c(-c2ccc(OCC3CO3)cc2)n1 (centres undefined) yielded a melting point of 152 to 154 °C.
Work on COc1c([N+](=O)[O-])c([N+](=O)[O-])c(OC)c2[nH]c(C(F)(F)F)nc12 yielded a melting point of 208 to 210 °C.
Work on CC(C)(C)Nc1c(NCc2ccc(C(F)(F)F)cc2)c(=O)c1=O yielded a melting point of 306 to 308 °C.
With CC#CC(=O)Nc1ccc2ncnc(Nc3cccc(N(C)C)c3)c2c1 the melting point was 252 to 254 °C.
With O=C(CCl)Cc1nc2ccccc2c(=O)n1-c1ccc(Cl)cc1 the melting point was > 275 °C.
With N=C1C2CC(F)CN2C(=O)CN1C1CCC(Cn2cncn2)C1 (centres undefined) the melting point was 158 to 162 °C.
Molecule Cn1c(-c2ccc(OC3CCN(C4CCCC4)CC3)cc2)nc2ncccc2c1=O has a melting point of 175 to 177 °C.
Cc1ccc(-c2ncn(-c3ccc(C(F)(F)C(F)(F)C(F)(F)F)cc3)n2)cc1 showed a melting point of 140 to 143 °C.
With CCc1nc(N)nc(N)c1-c1ccc(N(C)C)c([N+](=O)[O-])c1 the melting point was 256 to 258 °C.
With O=C(O)c1ccc(OCCn2ncc3nc(C(=O)NCc4cccc(OCCOc5nc[nH]n5)c4)[nH]c(=O)c32)cc1 the melting point was 176 to 178 °C.
With Cc1ccccc1NC(=O)Nc1ccc(-c2c(C(C)C)sc3ncnc(N)c23)cc1 the melting point was 233 to 234 °C.
Molecule Nc1cccc(NC(=O)OCc2cc3cc(-c4ccc(F)cc4)ccc3o2)c1C(=O)O has a melting point of 176 to 178 °C.
CCCCCCNC(=O)C1CCCN1 (centres undefined) showed a melting point of 61 to 64 °C.
With COC(=O)c1c(-c2cccs2)c2cc(OCc3ccccc3)ccc2c(=O)n1CC(C)C the melting point was 143 to 144 °C.
COC(=O)c1ccc(CNS(C)(=O)=O)cc1S(N)(=O)=O showed a melting point of 185 to 187 °C.
For COc1ccc(C)cc1NC(=O)Nc1ccc(N2CCN(C(=O)C3CC4CCC3C4)CC2)cc1 (centres undefined), the melting point was 126 to 128 °C.
Work on COc1cccc2c1CCC(COS(=O)(=O)c1ccc(C)cc1)C2 (centres undefined) yielded a melting point of 81 to 82 °C.
O=[N+]([O-])c1c(-c2ccc(Cl)cc2)[nH]c(C(F)(F)F)c1-c1csc(Br)c1Br gave a melting point of 241 to 242 °C.
Work on CCOC(=O)c1ccc(C(OC(c2ccc(C(=O)OCC)cc2)c2ccc3c(c2)C(C)(C)CCC3(C)C)c2ccc3c(c2)C(C)(C)CCC3(C)C)cc1 (centres undefined) yielded a melting point of 109 to 111 °C.
CC(C)(C)c1ccc(NC(=O)Nc2ccc(Oc3cc(Cl)ncn3)cc2)cc1 showed a melting point of 111 to 112 °C.
With N#Cc1c(F)cccc1S(=O)(=O)N(Cl)Cl the melting point was 149 to 152 °C.
Molecule O=C(Nc1cccc(F)c1)N1CCc2cc(S(=O)(=O)N3CCN(c4cccc(Cl)c4)CC3)ccc21 has a melting point of 208 to 210 °C.
With O=C(OCC1CC1)c1ncn2c1[C@@H]1CCCN1C(=O)c1c-2ccc(Cl)c1Cl the melting point was 185 to 186 °C.
Work on CCc1ccc(N(Cc2ccc(N3CCOCC3)cc2)C(=O)Nc2c(C(C)C)cccc2C(C)C)cc1 yielded a melting point of 159 to 161 °C.
In the case of C[C@H](CN1CC(C#N)C1)NC(=O)c1c[nH]c2ncc(-c3nn(C)c4cc(Cl)ccc34)nc12, the melting point is reported as 235 to 238 °C.
Work on CCCCCCCCc1ccc(CCC(CO)(CO)NC(C)=O)s1 yielded a melting point of 58 to 60 °C.
With O=C(O)c1ccc(CCCOCCCCCCBr)cc1 the melting point was 70 to 71 °C.
With NC(=O)N1CCN(c2nn(-c3ccccc3)c3cc(F)ccc23)CC1 the melting point was 168 to 170 °C.
CCOC(=O)c1c(-c2ccccc2)c2cc(Cl)ccc2n1CC#N showed a melting point of 119 to 120 °C.
With CSc1ccc(C(=N)Nc2ccc(F)cc2)cc1 the melting point was 145 to 147 °C.
CCOC(=O)c1cc2ccc([Si](C)(C)C)cc2n1Cc1cccc(F)c1 gave a melting point of 87 to 88 °C.
Work on COC(=O)C1SC=CC1Sc1ccccc1 (centres undefined) yielded a melting point of 43 to 45 °C.
For O=C(NCCCO)c1cc2ccccc2[nH]1, the melting point was 152 to 156 °C.
Work on Nc1nc(N)c2ncn(CCC(CO)CO)c2n1 yielded a melting point of 187 to 190 °C.
CCn1c(=O)n(/C(C)=C\SC)c2ccccc21 showed a melting point of 74 °C.
In the case of O=C(c1ccc(C(F)(F)F)cc1Sc1ccccc1)c1cnoc1C1CC1, the melting point is reported as 115 °C.
In the case of O=C1CCC(N2Cc3c(CNC(=O)Nc4ccccc4)cccc3C2=O)C(=O)N1 (centres undefined), the melting point is reported as 328 to 330 °C.
Molecule N#Cc1cccc(-c2nc(S(=O)(=O)C(F)(F)F)cc3cccnc23)c1 has a melting point of 102 to 104 °C.
In the case of O=C(Nc1cccnc1)N1CCc2cc(C(F)(F)F)ccc21, the melting point is reported as 188 to 189 °C.
Cc1ccc(-n2c(-c3ccc(Br)cc3)nc3c4ccccc4c4ccccc4c32)cc1 showed a melting point of 236 °C.
Molecule N#Cc1c(OC(F)(F)Br)ncnc1N1CCc2ccccc2CC1 has a melting point of 95 to 100 °C.
CCOC(=O)Cn1nnc(-c2cccc(OCc3ccc4ccccc4n3)c2)n1 gave a melting point of 111 to 113 °C.
Work on c1ccc(COc2cccc3nc[nH]c23)cc1 yielded a melting point of 165 to 167 °C.
